Data as given in PubChem BioAssay (NCI).
Where “and” joins values, the source holds several entries; their conditions need not be identical. Equal values may be shown once.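 Step 1: Grow cells in 96-well plates. Step 2: Expose to compound for 48 hours at 5 concentrations. Step 3: Interpolate endpoints linearly; if unreached, use highest concentration. Here, GI50 denotes the concentration required for 50% inhibition of growth. TGI: concentration producing complete growth inhibition.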

Assays:
Experiment in all cases: growth of human tumour cells (NCI), 48 h
[1] = test system: 786-0 renal
[2] = test system: CAKI-1 renal
[3] = test system: EKVX NSCLC
[4] = test system: HOP-62 NSCLC
[5] = test system: HS 578T breast
[6] = test system: M14 melanoma
[7] = test system: PC-3 prostate
[8] = test system: RPMI-8226 leukemia
[9] = test system: SK-MEL-5 melanoma
[10] = test system: SNB-19 CNS

Work on `CN(C)c1ccc(C(=C2C=CC(=[N+](C)C)C=C2)c2ccccc2Cl)cc1` yielded a GI50 [1] of 341 nM, a TGI [1] of 1130 nM and a GI50 [2] of 455 nM. It also gave a TGI [2] of 2760 nM, a GI50 [3] of 162 nM and a TGI [3] of 1450 nM. The GI50 [4] was 292 nM, the TGI [4] was 949 nM and the GI50 [5] was 207 nM. For the same molecule, the TGI [5] was 2780 nM, the GI50 [6] was 274 nM and the TGI [6] was 942 nM. It also gave a GI50 [7] of 242 nM, a TGI [7] of 995 nM and a GI50 [8] of 184 nM. It also gave a TGI [8] of 893 nM, a GI50 [9] of 301 nM and a TGI [9] of 1050 nM. For the same molecule, the GI50 [10] was 348 nM and the TGI [10] was 1290 nM.

For `CCN(CC)CCCNc1[nH]ncc2c(C)c3nc4ccccc4c3cc12`, the GI50 [1] was 346 nM, the TGI [1] was 1580 nM and 4570 nM and the GI50 [2] was 4070 nM. The TGI [2] was 18100 nM and 17700 nM, the GI50 [3] was 887 nM and the TGI [3] was 3440 nM and 8380 nM. For the same molecule, the GI50 [4] was 1080 nM, the TGI [4] was 2580 nM and 13300 nM and the GI50 [5] was 449 nM. The TGI [5] was 2130 nM and 6380 nM, the GI50 [6] was 1160 nM and the TGI [6] was 2440 nM and 6410 nM. The GI50 [7] was 498 nM, the TGI [7] was 2110 nM and 4550 nM and the GI50 [8] was 1510 nM and 990 nM. The TGI [8] was 4920 nM and 5620 nM, the GI50 [9] was 1410 nM and the TGI [9] was 2780 nM and 5050 nM. The GI50 [10] was 857 nM and the TGI [10] was 5960 nM and 4790 nM.

In the case of `Oc1c2c(c(O)c3ccccc13)C1(N=N2)c2ccccc2Oc2ccccc21`, the TGI [1] is reported as 11500 nM, the TGI [2] is reported as 26500 nM and the TGI [3] is reported as 28300 nM. For the same molecule, the TGI [4] was 38500 nM, the TGI [5] was 41500 nM and the TGI [6] was 26100 nM. The TGI [7] was 28500 nM, the TGI [8] was 14700 nM and the TGI [9] was 27200 nM. It also gave a TGI [10] of 32400 nM.

For `CC(=O)/C(=C\c1c(-c2ccccc2)[nH]c2ccccc12)S(=O)(=O)c1ccccc1`, the GI50 [1] was 1620 nM, the TGI [1] was 3440 nM and the GI50 [2] was 2430 nM. The TGI [2] was 10600 nM, the GI50 [3] was 3220 nM and the TGI [3] was greater than 100000 nM. The GI50 [4] was 1180 nM, the TGI [4] was 3030 nM and the GI50 [5] was 3810 nM. The TGI [5] was greater than 93800 nM, the GI50 [6] was 513 nM and the TGI [6] was 2150 nM. For the same molecule, the GI50 [7] was 2440 nM, the TGI [7] was 15000 nM and the GI50 [8] was 2230 nM. It also gave a TGI [8] of 7140 nM, a GI50 [9] of 780 nM and a TGI [9] of 2210 nM. The GI50 [10] was 4140 nM and the TGI [10] was 12100 nM.

For `CC1(C)N=C(N)N=C(N)N1c1ccc(Cl)c(Cl)c1`, the GI50 [1] was 72 nM, the TGI [1] was greater than 100000 nM and the GI50 [2] was 12500 nM. For the same molecule, the TGI [2] was greater than 100000 nM, the GI50 [3] was 1970 nM and the TGI [3] was greater than 100000 nM. The GI50 [4] was 533 nM, the TGI [4] was greater than 100000 nM and the GI50 [5] was greater than 27300 nM. For the same molecule, the TGI [5] was greater than 100000 nM, the GI50 [6] was 441 nM and the TGI [6] was greater than 100000 nM. For the same molecule, the GI50 [7] was 157 nM, the TGI [7] was greater than 100000 nM and the TGI [8] was greater than 100000 nM. The GI50 [9] was 547 nM, the TGI [9] was greater than 100000 nM and the GI50 [10] was 1000 nM. It also gave a TGI [10] greater than 100000 nM.

Molecule `Cc1ncc(-c2ccnc(Nc3ccc(S(C)(=O)=O)cc3)n2)n1C(C)C` has a GI50 [1] of 922 nM, a TGI [1] greater than 10000 nM and a GI50 [2] of 805 nM. The TGI [2] was greater than 10000 nM, the GI50 [3] was 1560 nM and the TGI [3] was 5540 nM. The GI50 [4] was 1360 nM, the TGI [4] was greater than 10000 nM and the GI50 [5] was 977 nM. It also gave a TGI [5] of 5330 nM, a GI50 [6] of 1600 nM and a TGI [6] of 5040 nM. For the same molecule, the GI50 [7] was 1300 nM, the TGI [7] was 7200 nM and the GI50 [8] was 1570 nM. For the same molecule, the TGI [8] was 6180 nM, the GI50 [9] was 811 nM and the TGI [9] was 3290 nM. It also gave a GI50 [10] of 2230 nM and a TGI [10] greater than 10000 nM.

`CN1CCN(c2ccc(C(=O)Nc3cccc(C#Cc4cccc5[nH]nc(N)c45)c3)cc2C(F)(F)F)CC1` gave a GI50 [1] of 2050 nM, a TGI [1] of 5040 nM and a GI50 [2] of 668 nM. For the same molecule, the TGI [2] was 1510 nM, the GI50 [3] was 1600 nM and the TGI [3] was 5630 nM. It also gave a GI50 [4] of 792 nM, a TGI [4] of 2190 nM and a GI50 [5] of 847 nM. It also gave a TGI [5] of 3400 nM, a GI50 [6] of 636 nM and a TGI [6] of 1340 nM. It also gave a GI50 [7] of 953 nM, a TGI [7] of 7920 nM and a GI50 [8] of 1450 nM. It also gave a TGI [8] of 4060 nM, a GI50 [9] of 2160 nM and a TGI [9] of 6340 nM. The GI50 [10] was 1680 nM and the TGI [10] was 4920 nM.
